Here are results for three molecules from US20260232758A1, “Low Cost Efficient Intracellular Delivery of Proteins and Nucleic Acids via Hydrophobic Ion Pairing” (Georgia Tech Research Corporation, priority 2023, published 2026).

The test system of one series is red blood cells. Kind of series: Hemolytic activity assay (hemoglobin release from red blood cells). Format: cell-based. Here is the method: FIG. 7 provides hemolytic activity for Cytochrome C, OA, SD, HIP CytC OA, and HIP CytC SD at 37° C. and 4° C. to show the influence of membrane stiffness on membrane interaction, in accordance with some embodiments of the present disclosure. 20 μM CytC was given to each group and the concentration of counterion given was consistent with the charge ratios used for delivery experiments. Washed red blood cells were diluted to 0.5% v/v in PBS and 1% v/v Triton X-100 was used as the positive control.
Washed red blood cells (RBC's) were diluted to a 5% v/v concentration in PBS. 100 μL of nanoparticles or treatment were incubated with 10 μL RBC's at 37° C. for 1 hour in a 96 well plate. After incubation with HIP treatment groups, the microplate reader was used to measure released hemoglobin from membrane disruption using 541 nm and subtracting background at 561 nm, then normalizing hemolytic activity to 5% Triton X-100. For imaging RBC's and NIH3T3/eGFP cells, an epifluorescent microscope (Zeiss Axio Observer Z1) with an 40× lens. […]

For series [1] the following is noted: cited from earlier work.
Series [2] in a line: Dynamic light scattering: z-average size and polydispersity of HIP complexes. In kind it is physicochemical. The note with it: DLS. Here is the method: Size and zeta potential were measured using dynamic light scattering (DLS) using Malvern Instruments Zetasizer NanoZS intensity mode with a 4 mW He—Ne laser with 633 nm wavelength to detect backscattering) (173° using 1× for DLS or 0.1× PBS for zeta potential at pH 7.4 solvent conditions and protein material selection. Z-average values were used for HIP complex size. Electrophoretic mobility was converted to zeta potential using the Smoluchowski approximation. Imaging of solutions was performed using an epifluorescence microscope (Zeiss Axio Observer Z1) using a 100× oil immersion lens. Transmission electron microscopy (TEM) grids were prepared using 10 μL sample on copper grids, letting the sample adhere for 5 minutes, washing in water for 30 seconds, staining with 1% phosphotungstic acid for 10 seconds, washing again for 30 seconds, and drying overnight. A JEOL 100 CX-II TEM was utilized to visualize samples.

Broadly, the Log P is the decadic logarithm of the partition coefficient of the neutral form, usually between octanol and water. In the case of `CCCCC(CC)COC(=O)CC(C(=O)OCC(CC)CCCC)S(=O)(=O)[O-].[Na+]` (stereo not drawn) [sodium docusate, reference compound], the “hemolytic activity at reduced temperature” value in the series on red blood cells (4° C. compared with 37° C.) is “remained high”. Further, the “Log P” value in series [1] was 5.2.
As for “CytC: 12.4 kDa positively charged protein; induces apoptosis upon delivery to the mitochondrial membrane”, in series [2], the “polydispersity index (PDI)” value was 0.542±0.17. Besides, the z-average hydrodynamic diameter in series [2] (1× PBS pH 7.4) came out at 729±460 nm. Also, in the series with red blood cells (37° C., same concentration as in HIP CytC complexes), the relative hemolytic activity result is given as “greater than 100%”.
In the case of `c1ccc(CCNCc2ccccc2)cc1` [benethamine, N-benzyl-2-phenylthanamine], the “Log P” value in series [1] is recorded as 3.6.
